pIC50: −log10 of the molar value. “And” between values parts separate entries of the source, which are not always exact repeats. Equal entries are not always repeated.
How the values were obtained:
[1] = biological target: T1, endogenous GSTO1 (Homo sapiens, UniProt P78417); assay: In-gel fluorescence competitive CMFDA binding assay, endogenous GSTO1 in HCT116; settings: 10 µM; inhibition of CMFDA binding, HCT116
T1 sequence (P78417 1-241): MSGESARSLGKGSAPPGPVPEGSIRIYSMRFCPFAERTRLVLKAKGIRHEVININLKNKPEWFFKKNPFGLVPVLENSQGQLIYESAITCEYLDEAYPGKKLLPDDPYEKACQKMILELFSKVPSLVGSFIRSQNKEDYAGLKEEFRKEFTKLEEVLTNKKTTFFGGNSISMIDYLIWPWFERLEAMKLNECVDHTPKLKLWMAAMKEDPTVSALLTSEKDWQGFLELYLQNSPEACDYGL
Text: (§1) Primary screening of GSTO inhibitors was based on competitive inhibition of CMFDA binding to endogenous GSTO. Briefly, HCT116^p53+/+ cells (4 × 10^4 per well) were coated in a 12-well plate. […] Cells were then washed with PBS and lysed using Cell Lytic M buffer (Sigma). […] Gels were immediately scanned on a Typhoon variable mode imager (Amersham Bioscience). Quantification of fluorescent band intensity was done using Image Quant 5.2 software.

[2] = test system: HCT116p53+/+ cell; assay: MTT cell proliferation at single concentration; assay type: cell-based, human
Procedure: Cell proliferation was assessed by a MTT assay. Cancer cells were seeded in 96-well microtitre plates and, after overnight attachment, treated with GSTO1 inhibitors. After 72 h, MTT solution (3 mg ml^−1; 20 μl) was added to each well and cells were incubated for 3 h at 37 °C. After incubation, media from each well was removed and the dark blue formazan crystals formed by live cells were dissolved in DMSO (150 μl per well). The absorbance intensity was measured at 570 nm on a microplate reader (Molecular Devices, Sunnyvale, CA, USA). Cell viability after 24 h treatment was assessed using ApoTox-Glo triplex assay (Promega) according to the manufacturer's protocol. At least three independent dose–response experiments with each concentration tested in triplicate were performed for each cell line.

[3] = biological target: T2, GSTO1 (Homo sapiens, UniProt P78417); assay: In-gel fluorescence competitive CMFDA binding assay, recombinant GSTO1; settings: inhibition of CMFDA binding
T2 sequence (P78417 1-241): T1 sequence (P78417 1-241)
Text: as §1

[4] = biological target: T2, GSTO1; assay: GSTO1 substrate assay (reduction of 4-NPG); settings: for pIC50: read-out: GSTO substrate assay IC50, cluster screening tables
Procedure: For activity screening, we adapted a GSTO1 substrate assay that relies on the quantification of the reduction of S-(4-nitrophenacyl)glutathione (4-NPG), a GSTO1-specific substrate[17], using recombinant human GSTO1 in a high-throughput screening format.
Enzyme activity was measured by monitoring the reduction of 4-NPG to 4-nitroacetophenone by GSTO1.

| Structure (SMILES) | GSTO binding assay (% Inhibition at 10 µM) Endogenous [1] [%] | % Inhibition of HCT116p53+/+ cell proliferation at 10 µM [2] | GSTO binding assay (% Inhibition at 10 µM) Recombinant [3] [%] | GSTO substrate assay % Inhibition at 10 µM [4] [%] | pIC50 [4] |
| --- | --- | --- | --- | --- | --- |
| O=C(CCl)Nc1ccnn1Cc1cccc(Cl)c1 [C2-7] | 55.3 | 85.7% and 91% | 56.0 | 79.7 | 6.22 |
| CCOC(=O)c1c(NC(=O)CCl)sc(Cl)c1-c1ccccc1 [C2-9] | 59.2 | 16.3% | 50.0 | 13.9 |  |
| Cc1cccc(C(O)(C(=O)NN(C(=O)CCl)C2CCCCC2)c2cccc(C)c2)c1 [C4-21] | 20.6 | 50.6% and 54.9% | 9.8 | 23.3 |  |
| CCOc1cc2c(cc1CNC(=O)CCl)OC(C)C2 (centres unmarked) [C3-5] | 31.8 | 64.1% and 63.6% | 14.7 | 85.1 |  |
| COc1cc(CCNC(=O)CCl)ccc1OC(F)F [C3-11] | 45.6 | 8.1% and 16.1% | 10.1 | 9.8 |  |
| CCN1CCN(c2ccc(NC(=O)CCl)cc2)CC1 [C1-20] | -15.1 | 43.7% and 39% | -8.5 | 66.9 |  |
| O=C(CCl)NCCCSc1ccccc1 [C3-14] | 56.4 | 28.5% | 38.8 | 78.4 |  |
| CCCCN(C(=O)CCl)c1c(N)n(CC(C)C)c(=O)[nH]c1=O [C4-19] | -20.7 | 67.3% | 2.1 | 11.8 |  |
| O=C(CCl)NNc1c(Cl)cc(Cl)cc1Cl [C3-17] | 39.3 | 7.4% | 57.6 | 61.9 |  |
| O=C(CCl)Nc1cc([N+](=O)[O-])ccc1Nc1ccc(F)cc1 [C1-4] | 31.8 | 80.6% | 81.5 | 92.5 |  |
| CCN(CC(=O)NC1CCS(=O)(=O)C1)C(=O)CCl (centres unmarked) [C4-13] | 7.3 | 62.3% and 67.3% | 5.1 | 27.2 |  |
| O=C(CCl)N1CCN(Cc2ccccc2F)CC1 [C5-7] | 53.1 | -2.0% and -4.5% | 65.1 | 72.8 | 6.47 |
| O=C(CCl)N(CC(F)(F)F)c1ccc(Cl)cc1 [C4-1] | 58.5 | 76.2% and 81.4% | 40.4 | 73.0 | 5.42 |
| O=C(CCl)Nc1cc2c(cc1Cl)C(=O)c1ccccc1C2=O [C1-12] | 40.1 | 85% | 26.5 | 10.4 |  |
